Broadly, the pIC50 is −log10 of the IC50, conventionally taken in molar units. Lower therefore signals a large IC50.

pIC50: −log10 of the molar value.

The results in this text go back to BindingDB's records for patent US20230357269 (Les Laboratoires Servier, 2023).

The experiment has as its target Leucine-rich repeat serine/threonine-protein kinase 2 (Homo sapiens, UniProt Q5S007). The experiment in a line: LRRK2 Kinase Activity Assay. Here is the method:
LRRK2 Kinase reactions were carried out in 384-well white polystyrene plates in a final volume of 6 μl using ADP-Glo Kinase Assay kit (Promega Corp.). Compound and substrates (LRRKtide peptide and ATP) in assay buffer were first dispensed in wells. Kinase reaction was then started by the addition of human recombinant LRRK2 protein. After 1h-incubation at 37 C., the enzymatic reaction was stopped by the addition of 6 μl of ADP-Glo Reagent-1 and an additional 40-minutes incubation at 23 C. (residual ATP depletion). A final 30-minutes incubation after 12 μL reagent-2 addition (ADP to ATP conversion and luciferin/luciferase reaction) was performed before luminescent signal acquisition (EnVision multimode plate reader-PerkinElmer, Inc.). Data from 10 individual concentrations of tested compounds (N=2) were fitted (XLfit -ID Business Solutions Ltd) to deliver IC50s (compound concentration leading to 50% inhibition of reference enzymatic activity).

Sequence of Leucine-rich repeat serine/threonine-protein kinase 2 (Q5S007 whole entry): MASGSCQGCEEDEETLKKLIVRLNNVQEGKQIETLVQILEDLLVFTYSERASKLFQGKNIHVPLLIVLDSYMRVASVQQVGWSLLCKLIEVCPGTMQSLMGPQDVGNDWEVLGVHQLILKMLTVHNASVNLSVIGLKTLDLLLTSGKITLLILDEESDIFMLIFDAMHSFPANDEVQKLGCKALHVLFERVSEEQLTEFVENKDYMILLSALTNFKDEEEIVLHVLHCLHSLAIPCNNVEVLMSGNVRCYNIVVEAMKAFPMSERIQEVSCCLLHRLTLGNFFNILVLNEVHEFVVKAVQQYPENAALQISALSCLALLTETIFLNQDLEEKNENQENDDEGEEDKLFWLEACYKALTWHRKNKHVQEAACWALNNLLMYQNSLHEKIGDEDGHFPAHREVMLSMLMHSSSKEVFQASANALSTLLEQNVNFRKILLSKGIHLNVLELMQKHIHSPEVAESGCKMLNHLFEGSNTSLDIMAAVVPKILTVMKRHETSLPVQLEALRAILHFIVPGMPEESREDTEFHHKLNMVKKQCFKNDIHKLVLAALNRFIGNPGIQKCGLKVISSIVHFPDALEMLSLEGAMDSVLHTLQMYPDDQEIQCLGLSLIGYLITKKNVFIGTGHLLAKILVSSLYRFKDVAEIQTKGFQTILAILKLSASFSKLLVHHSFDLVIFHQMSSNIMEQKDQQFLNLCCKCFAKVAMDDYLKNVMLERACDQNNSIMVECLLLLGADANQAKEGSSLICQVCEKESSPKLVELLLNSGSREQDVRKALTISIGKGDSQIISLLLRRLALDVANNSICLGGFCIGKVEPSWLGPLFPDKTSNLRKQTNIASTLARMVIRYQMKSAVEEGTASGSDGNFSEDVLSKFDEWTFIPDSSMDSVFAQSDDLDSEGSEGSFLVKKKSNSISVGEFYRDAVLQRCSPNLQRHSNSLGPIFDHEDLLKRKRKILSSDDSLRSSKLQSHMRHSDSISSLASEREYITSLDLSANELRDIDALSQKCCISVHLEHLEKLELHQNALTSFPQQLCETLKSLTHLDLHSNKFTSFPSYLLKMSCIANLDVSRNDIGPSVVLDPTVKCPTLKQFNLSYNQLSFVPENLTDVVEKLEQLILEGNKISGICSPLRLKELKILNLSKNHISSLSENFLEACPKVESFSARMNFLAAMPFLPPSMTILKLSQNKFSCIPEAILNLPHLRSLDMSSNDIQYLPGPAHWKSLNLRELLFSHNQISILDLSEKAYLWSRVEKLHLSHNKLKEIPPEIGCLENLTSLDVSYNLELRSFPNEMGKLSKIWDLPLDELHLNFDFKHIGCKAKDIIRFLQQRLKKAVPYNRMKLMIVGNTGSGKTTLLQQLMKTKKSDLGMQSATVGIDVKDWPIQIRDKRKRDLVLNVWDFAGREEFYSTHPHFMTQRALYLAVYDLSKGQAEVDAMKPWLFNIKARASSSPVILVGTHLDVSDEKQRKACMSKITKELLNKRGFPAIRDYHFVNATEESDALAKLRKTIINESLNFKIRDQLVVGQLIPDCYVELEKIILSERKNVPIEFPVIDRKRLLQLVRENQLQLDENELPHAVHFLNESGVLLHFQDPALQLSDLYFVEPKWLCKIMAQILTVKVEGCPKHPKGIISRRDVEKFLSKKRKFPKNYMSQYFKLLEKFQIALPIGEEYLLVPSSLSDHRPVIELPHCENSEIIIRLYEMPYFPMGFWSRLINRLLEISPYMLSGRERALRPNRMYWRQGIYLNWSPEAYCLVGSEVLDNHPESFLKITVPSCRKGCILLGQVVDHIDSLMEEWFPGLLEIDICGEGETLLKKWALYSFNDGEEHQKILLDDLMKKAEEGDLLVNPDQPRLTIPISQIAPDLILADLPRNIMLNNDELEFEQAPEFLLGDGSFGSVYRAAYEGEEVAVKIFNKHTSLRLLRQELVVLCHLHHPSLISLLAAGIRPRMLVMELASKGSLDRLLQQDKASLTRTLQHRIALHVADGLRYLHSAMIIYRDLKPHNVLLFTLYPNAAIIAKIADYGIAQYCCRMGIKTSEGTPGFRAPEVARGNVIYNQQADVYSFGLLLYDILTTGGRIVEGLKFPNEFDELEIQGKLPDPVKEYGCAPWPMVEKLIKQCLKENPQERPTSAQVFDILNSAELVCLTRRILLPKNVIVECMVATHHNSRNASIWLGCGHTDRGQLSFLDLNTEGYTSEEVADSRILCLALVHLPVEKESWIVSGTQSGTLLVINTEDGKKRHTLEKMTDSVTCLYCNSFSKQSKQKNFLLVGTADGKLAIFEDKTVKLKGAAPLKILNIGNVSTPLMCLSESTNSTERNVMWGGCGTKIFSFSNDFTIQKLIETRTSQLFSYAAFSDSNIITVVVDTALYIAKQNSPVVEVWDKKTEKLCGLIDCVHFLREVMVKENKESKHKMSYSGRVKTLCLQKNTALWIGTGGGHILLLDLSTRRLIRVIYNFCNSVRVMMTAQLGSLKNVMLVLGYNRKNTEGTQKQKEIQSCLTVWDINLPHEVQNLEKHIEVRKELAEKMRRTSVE

For `O=C1NCCCOc2ccc3[nH]nc(c3c2)-c2cc(Br)cc(c2)CO1` [US20230357269, Example 9], the negative-log IC50 (pIC50) was above 8.00. For `O=C1NCCCOc2ccc3[nH]nc(c3c2)-c2ccc(Br)c(c2)CO1` [US20230357269, Example 30] the value was above 8.00.
